Assays:
[1] = system: T gondii; test: Growth of T gondii within human foreskin fibroblast cells in media containing 2,4-dithiouracil; assay type: cell-based, Toxoplasma gondii; settings: 5 μM to 2 mM 2,4-dithiouracil, even at highest concentration (2 mM); replication monitored over time
Description: (§1) Methods and Results: Initial experiments assayed the growth of T gondii within human foreskin fibroblast cells in media containing a range of concentrations of 2,4-dithiouracil (5 μM to 2 mM). Equivalent numbers of parasites were used to infect host cells and the replication of the parasites in the different concentrations of 2,4-dithiouracil was monitored over time.

[2] = system: human RNA; test: Incorporation of thiouracil into RNA of human foreskin fibroblast host cells (HPDP-biotin, streptavidin-HRP northern blot); assay type: cell-based; settings: Toxoplasma-infected human foreskin fibroblasts, 2 mM, 6 hours
Description: (§2) To test for the incorporation of thiouracil into RNA, wild type (WT) parasites and mutants that lack the UPRT enzyme (UPRT(−)) were used to infect human foreskin fibroblasts in culture after which, the normal medium was replaced with medium containing 2 mM 2,4-dithiouracil. Following growth in this medium for 6 hours, the infected cells were harvested and RNA prepared by standard methods using Trizol reagent from Gibco-BRL.
(§3) The resulting RNA was incubated with HPDP-biotin (EZ-Link Biotin-HPDP (N-(6-(Biotinamido)hexyl)-3′-(2′-pyridyidithio)-propionamide) from Pierce Biotechnology) which specifically reacts with free thiols which are normally not present in RNA. For both RNA samples (WT and UPRT(−)) 25 μg of RNA was incubated with 50 μl of a 1 mg/ml Biotin-HPDP solution and Tris HCl/EDTA buffer (pH 7.4) for 1.5 hours. Biotinylated RNA was precipitated from any excess biotin by isopropanol precipitation and centrifugation. Approximately 2.5 μg of this material was resolved by agarose gel electrophoresis and transferred to a nitrocellulose filter, all by standard procedures. The resulting filter was then probed with streptavidin conjugated to horseradish peroxidase (Streptavidin-HRP) and the bound material detected with chemiluminescence (using the ECL kit from Amersham). […] The upper-most major band is from the large subunit of the human ribosome.

[3] = system: HeLa cells; test: Incorporation of thiouracil into RNA of HeLa cells with or without the Toxoplasma UPRT gene (northern blot); assay type: cell-based, human; settings: 6 hours
From the text: Methods and Results: The coding region of the Toxoplasma UPRT gene was incorporated into the retroviral vector known as LNCX (Miller & Rosman (1989) BioTechniques 7:980-990), placing the UPRT gene under control of the cytomegalovirus immediate-early promoter. This construct was introduced into HeLa cells and cell lines that had stably incorporated the vector were selected using neomycin. Cells that survived this selection and non-transfected HeLa cells were both grown in the presence of 2,4-dithiouracil for 6 hours. RNA was isolated from these cells and labeled with HPDP-biotin as described above. Incorporation of thiouracil was detected by northern blot as described above.

[4] = molecular target: UPRT of the protozoan Toxoplasma gondii (Toxoplasma gondii, UniProt Q26998); settings: purified enzyme; 100 different compounds tested in previous studies; cited from earlier work
Sequence of UPRT of the protozoan Toxoplasma gondii (Q26998 whole entry): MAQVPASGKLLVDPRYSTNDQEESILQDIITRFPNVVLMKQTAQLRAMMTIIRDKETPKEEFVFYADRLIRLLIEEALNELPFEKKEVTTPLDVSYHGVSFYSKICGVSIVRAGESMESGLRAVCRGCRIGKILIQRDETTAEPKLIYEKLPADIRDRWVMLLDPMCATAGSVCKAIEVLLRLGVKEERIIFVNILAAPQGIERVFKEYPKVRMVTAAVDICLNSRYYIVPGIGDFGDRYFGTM

[5] = system: Toxoplasma RNA; test: Incorporation of thiouracil into Toxoplasma RNA (HPDP-biotin labeling, northern blot probed with streptavidin-HRP); assay type: cell-based, Toxoplasma gondii; settings: 6 hours
Description: as §2, §3

[6] = system: human foreskin fibroblast cells; test: Growth of human foreskin fibroblast host cells in media containing 2,4-dithiouracil; assay type: cell-based; settings: 5 μM to 2 mM 2,4-dithiouracil, even at highest concentration (2 mM)
Description: as §1

Structure (SMILES)	growth defects of the parasites [1]	incorporation into human RNA [2]	incorporation of thiouracil into RNA ([3]; HeLa cells that had received the Toxoplasma UPRT gene)	incorporation of thiouracil into RNA ([3]; normal (non-transfected) HeLa cells)	substrate of purified UPRT (conversion into nucleoside monophosphate) [4]	incorporation of thiouracil into Toxoplasma RNA, UPRT dependence ([5]; WT versus mutants that lack the UPRT enzyme (UPRT(−)), 2 mM)	incorporation of thiouracil into Toxoplasma ribosomal RNA ([5]; wild type parasites in human foreskin fibroblasts, 2 mM 2,4-dithiouracil)	growth defects of the human cells [6]
Sc1ccnc(S)n1 [2,4-dithiouracil]	No growth defects	not incorporated	good incorporation at a level similar to that seen with the parasites	lack the ability to incorporate the thiouracil	converted into UMP	only in parasites with the UPRT enzyme	two of the three major bands detectable by ethidium staining of the RNA have thiouracil incorporated into them	No growth defects
O=c1[nH]cc(F)c(=O)[nH]1 [5-fluorouracil]					known toxic substrates			
O=c1c[n+]([O-])cc[nH]1 [emimycin]					known toxic substrates			
